Laboratory results taken from PubChem BioAssay AID588764 (Broad Institute, 2011).
Inconclusive results are not listed. Activity calls are given as the source filed them. How the calls were made is not given here.

Target: Histone acetyltransferase RTT109 (Candida albicans (strain SC5314 / ATCC MYA-2876)) (UniProt Q5AAJ8)
Test: Rtt109/Vps75 acetyltransferase inhibitor potency, dose response, biochemical, cherry-picked hits, plate reader (AID 588764)
Settings: Rtt109/Vps75 HAT activity; for activity change, negative = inhibition: at 19.5 µM (top of the series)

Chain of Histone acetyltransferase RTT109 (Candida albicans (strain SC5314 / ATCC MYA-2876)) (Q5AAJ8 whole entry, looked up): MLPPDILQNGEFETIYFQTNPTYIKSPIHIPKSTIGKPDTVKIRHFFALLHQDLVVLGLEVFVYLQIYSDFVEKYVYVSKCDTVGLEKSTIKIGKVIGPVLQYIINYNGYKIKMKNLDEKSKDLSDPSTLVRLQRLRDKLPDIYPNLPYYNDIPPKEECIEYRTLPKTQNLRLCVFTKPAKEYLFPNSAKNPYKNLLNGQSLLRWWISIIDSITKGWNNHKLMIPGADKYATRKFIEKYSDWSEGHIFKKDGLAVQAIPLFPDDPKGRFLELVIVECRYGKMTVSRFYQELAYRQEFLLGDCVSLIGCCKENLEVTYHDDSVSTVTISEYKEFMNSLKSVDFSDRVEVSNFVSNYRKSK

For `COc1ccccc1NC1=C(Cl)C(=O)N(C2CCCCC2)C1=O`, the “activity change, negative = inhibition” value was “inactive”.

With `O=C(NC(=S)Nc1ccc(Oc2ccccc2)cc1)c1ccc(Cl)cc1` the “activity change, negative = inhibition” value was “inactive”.

For `Clc1ccc(COC(Cn2ccnc2)c2ccc(Cl)cc2Cl)c(Cl)c1` (stereo not given), the “activity change, negative = inhibition” value was “inactive”.

`CC1Sc2ccccc2N(CC(=O)N(C(C)C)C(C)C)C1=O` (stereo not given) was tested, and the “activity change, negative = inhibition” value was “inactive”.

`CC1CCCC(NS(=O)(=O)c2cccc3nsnc23)C1C` (stereo not given) was tested, and the “activity change, negative = inhibition” value was “inactive”.

`O=C(Nc1nc(-c2nc3ccccc3s2)cs1)c1ccc(S(=O)(=O)N2CCOCC2)cc1` was tested, and the “activity change, negative = inhibition” value was “inactive”.

For `CCOC(=O)c1c(CNCCN(CC)CC)n(C)c2cc(Br)c(OC)cc12`, the “activity change, negative = inhibition” value was “inactive”.

In the case of `CCCn1cc(S(=O)(=O)CC(=O)NC2CCCCC2)c2ccccc21`, the “activity change, negative = inhibition” value is reported as “inactive”.

For `NCC12CC3CC(C1)CC(c1ccc(Cl)cc1)(C3)C2`, the “activity change, negative = inhibition” value was “inactive”.

`CCOc1ccccc1N1CCN(C(=O)c2ccncc2)CC1` was tested, and the “activity change, negative = inhibition” value was “inactive”.

In the case of `Cc1ccc2c(c1)C1C[N+](C)(CC(=O)c3ccc(Cl)cc3Cl)CCC1N2C(=O)c1ccc(F)cc1` (stereo not given), the AC50 is reported as 13.4 µM.

`COc1ccc(CNC(=O)COC(=O)c2ccc(S(=O)(=O)N3CCCCC3)cc2)cc1` was tested, and the “activity change, negative = inhibition” value was “inactive”.

Work on `O=C(O)C1CCc2sc3[nH]c(=S)n(-c4ccccc4)c(=O)c3c21` (stereo not given) yielded an AC50 of 9.94 µM.

For `Cc1[nH]n(-c2ccccc2)c(=O)c1C=NC1CCCCC1`, the “activity change, negative = inhibition” value was “inactive”.

`COc1ccc(OC)c(/C=C2\SC(=S)N(C(C(=O)O)c3ccccc3)C2=O)c1` (stereo not given) was tested, and the “activity change, negative = inhibition” value was “inactive”.

In the case of `COc1cccc(C(=O)NNC(=O)CCC(=O)O)c1`, the “activity change, negative = inhibition” value is reported as “inactive”.

`Cc1nn(CC(=O)NCc2cccnc2)c(C)c1[N+](=O)[O-]` was tested, and the “activity change, negative = inhibition” value was “inactive”.

In the case of `CC(C)c1nnc(NC(=O)CCC(=O)NCc2cccs2)s1`, the “activity change, negative = inhibition” value is reported as “inactive”.

With `CCOC(=O)C(=Cc1cc(=O)c(OC)co1)C(=O)OCC` the AC50 was 10.7 µM.

With `COc1ccc(CN(C)C(=O)c2cc(S(=O)(=O)N3CCCCCC3)ccc2OC)cc1OC` the “activity change, negative = inhibition” value was “inactive”.

For `COc1ccc(-n2sc3ccc(F)cc3c2=O)cc1`, the AC50 was 6 µM.

With `Cn1c(=O)c2c(nc(NC3CCCCC3)n2CC(=O)C23CC4CC(CC(C4)C2)C3)n(C)c1=O` the “activity change, negative = inhibition” value was “inactive”.

With `CCn1c(CCn2c3ccccc3c3ccccc32)n[nH]c1=S` the “activity change, negative = inhibition” value was “inactive”.

With `O=C(Nc1cccc(-c2nc3cccnc3s2)c1)c1cccnc1Cl` the “activity change, negative = inhibition” value was “inactive”.

In the case of `CC(C(=O)NC1C=CS(=O)(=O)C1)N1C(=O)/C(=C/c2ccc(Cl)cc2)SC1=S` (stereo not given), the “activity change, negative = inhibition” value is reported as “inactive”.

For `CCOC(=O)c1c(C)n(-c2ccc(C)cc2)c2ccc(OCC(O)CNCCCO)cc12` (stereo not given), the “activity change, negative = inhibition” value was “inactive”.

In the case of `CCCC[n+]1c(C)sc2cc(OC)ccc21`, the “activity change, negative = inhibition” value is reported as “inactive”.

`COc1ccc(NC(=O)Nc2nnc(-c3cccs3)s2)cc1` was tested, and the “activity change, negative = inhibition” value was “inactive”.

`CS(=O)(=O)c1ncc(Cl)c(C(=O)Nc2ccc(N3CCOCC3)cc2)n1` was tested, and the AC50 was 8.27 µM.

In the case of `Cc1nn(S(=O)(=O)c2ccc(C(C)C)cc2)c(C)c1S(=O)(=O)N1CCOCC1`, the “activity change, negative = inhibition” value is reported as “inactive”.

With `Oc1ccccc1CNc1cnc2ccccc2c1` the “activity change, negative = inhibition” value was “inactive”.

`O=C(NCc1ccccc1)c1nc(S(=O)(=O)Cc2ccccc2)ncc1Cl` was tested, and the AC50 was 15 µM.

`CC1CCC2(CC1)NC(=S)N(c1ccccc1)N2` (stereo not given) was tested, and the “activity change, negative = inhibition” value was “inactive”.

In the case of `Cc1ccc(/C=C2\SC(=S)N(C(Cc3ccccc3)C(=O)O)C2=O)cc1` (stereo not given), the “activity change, negative = inhibition” value is reported as “inactive”.

With `CCOC(=O)c1c(C)oc2c1c(C=NCCO)c(O)c1ccccc12` the “activity change, negative = inhibition” value was “inactive”.

In the case of `Cc1ccccc1/C=C/C(=O)NCC(=O)N1CCC(N(C)C2CCCCC2C)CC1` (stereo not given), the “activity change, negative = inhibition” value is reported as “inactive”.

With `Cc1cccn2cc(CCNS(=O)(=O)c3cccs3)nc12` the “activity change, negative = inhibition” value was “inactive”.

`CN1CCN(S(=O)(=O)c2cccc(C(=O)N(Cc3ccccc3)c3ccccc3)c2)CC1` was tested, and the “activity change, negative = inhibition” value was “inactive”.

In the case of `CCOC(=O)C1CCCN(c2cc(=O)n(C3CCCCC3)c(=O)[nH]2)C1` (stereo not given), the “activity change, negative = inhibition” value is reported as “inactive”.

With `Clc1nc(NCc2cccnc2)nc(N2CCOCC2)n1` the “activity change, negative = inhibition” value was “inactive”.

`CCCC1(c2ccccc2)NC(=O)N(CC(=O)N(C)Cc2c(F)cccc2Cl)C1=O` (stereo not given) gave an AC50 of 2.79 µM.

With `CCc1ccc(C(=O)CSc2ncn[nH]2)cc1` the AC50 was 4.11 µM.

In the case of `CC(C)(C)C1CCc2c(sc(NC(=O)CSc3nnc(-c4ccccc4)o3)c2C#N)C1` (stereo not given), the “activity change, negative = inhibition” value is reported as “inactive”.

In the case of `O=C(NCC(=O)N1CCCCC1)c1ccc2ccccc2c1`, the “activity change, negative = inhibition” value is reported as “inactive”.

`Cc1ccc(CN(C(=O)c2ccccc2C)C2CCS(=O)(=O)C2)o1` (stereo not given) was tested, and the “activity change, negative = inhibition” value was “inactive”.

In the case of `CC(/C=C1\SC(=S)N(C(C(=O)O)c2ccccc2)C1=O)=C\c1ccccc1` (stereo not given), the “activity change, negative = inhibition” value is reported as “inactive”.

For `COc1cccc(C(=O)NCc2nnc(SCC(=O)Nc3nccs3)n2-c2cccc(C)c2)c1`, the “activity change, negative = inhibition” value was “inactive”.

With `Cc1ccc(S(=O)(=O)c2nc(-c3ccccc3)oc2N2CCC(C(N)=O)CC2)cc1` the “activity change, negative = inhibition” value was “inactive”.

In the case of `CCCCNS(=O)(=O)c1ccc(NC(=O)Cc2ccccc2[N+](=O)[O-])cc1`, the “activity change, negative = inhibition” value is reported as “inactive”.

For `O=C(Nc1ccc(Cl)c(S(=O)(=O)N2CCCCC2)c1)C1=COCCO1`, the “activity change, negative = inhibition” value was “inactive”.

For `Cc1cc(C(=O)Nc2ccncc2)c(C)o1`, the “activity change, negative = inhibition” value was “inactive”.

With `C1CCC(C(CC2CCCCN2)C2CCCCC2)CC1` (stereo not given) the “activity change, negative = inhibition” value was “inactive”.

`COc1ccc(Br)cc1CN(C)C(C)C(=O)Nc1cccc(C(C)=O)c1` (stereo not given) was tested, and the “activity change, negative = inhibition” value was “inactive”.

`CC(=O)N1CCN(c2ncnc3ccccc23)CC1` was tested, and the “activity change, negative = inhibition” value was “inactive”.

With `Cc1cc(C)c2sc(C)[n+](CCCS(=O)(=O)[O-])c2c1` the “activity change, negative = inhibition” value was “inactive”.

For `O=C(O)CSCC(=O)Nc1cc(C(F)(F)F)ccc1Cl`, the “activity change, negative = inhibition” value was “inactive”.

For `O=S(=O)(Nc1ccc(O)c(Sc2nc3ccccc3s2)c1)c1cccc2ccccc12`, the “activity change, negative = inhibition” value was “inactive”.

For `COc1ccc(C2CC(=O)C(C=NCCO)=C(O)C2)cc1` (stereo not given), the “activity change, negative = inhibition” value was “inactive”.

With `O=C(O)C(Cc1ccccc1)N1C(=O)/C(=C/c2cccs2)SC1=S` (stereo not given) the “activity change, negative = inhibition” value was “inactive”.

`COc1ccc(S(=O)(=O)N2CCN(c3ccccn3)CC2)cc1OC` was tested, and the “activity change, negative = inhibition” value was “inactive”.

With `CN(C(=O)c1ccc(N2CCCCC2)c([N+](=O)[O-])c1)C1(C)CCS(=O)(=O)C1` (stereo not given) the “activity change, negative = inhibition” value was “inactive”.

Molecule `CSS(=O)(=O)c1cccc2cccnc12` has an AC50 of 7.95 µM.

`Cc1ccc(S(=O)(=O)N/N=C\C=C\c2ccccc2)cc1` was tested, and the “activity change, negative = inhibition” value was “inactive”.

In the case of `CC(=O)N(c1ccc2oc(=O)sc2c1)S(=O)(=O)c1cccc2cccnc12`, the “activity change, negative = inhibition” value is reported as “inactive”.

With `O=C(Nc1ccc2oc(-c3ccncc3)nc2c1)c1ccc2c(c1)OCCO2` the “activity change, negative = inhibition” value was “inactive”.

With `CN(C)C(=S)SSC(=S)N(C)C` the AC50 was 3.4 µM.

In the case of `Nc1ccc(Nc2ccncc2[N+](=O)[O-])cc1`, the “activity change, negative = inhibition” value is reported as “inactive”.

In the case of `Cc1ccc(S(=O)(=O)Nc2ccc(O)c3cccnc23)cc1`, the “activity change, negative = inhibition” value is reported as “inactive”.

For `O=C(NCCCN1CCN(c2ccccc2F)CC1)C1CCC(=O)N1C1CCCCC1` (stereo not given), the “activity change, negative = inhibition” value was “inactive”.

For `O=S(=O)(Nc1cc(Sc2ncn[nH]2)c(O)c2ccccc12)c1ccccc1`, the AC50 was 4.1 µM.

In the case of `O=C(CSc1nnc(Cc2cccs2)n1C1CCCCC1)N1CCN(C(=O)c2ccco2)CC1`, the “activity change, negative = inhibition” value is reported as “inactive”.

`COC(=O)c1cc2c(ccn2-c2ccc(F)cc2)n1CC(=O)C(C)(C)C` was tested, and the “activity change, negative = inhibition” value was “inactive”.

In the case of `O=C(CN1CCCc2ccccc21)NCc1ccc2c(c1)OCO2`, the “activity change, negative = inhibition” value is reported as “inactive”.

For `Cc1ccc2sc(C)[n+](CCO)c2c1`, the “activity change, negative = inhibition” value was “inactive”.

`Nc1nnc(SC2CC(=O)N(c3ccccc3)C2=O)s1` (stereo not given) was tested, and the AC50 was 13.6 µM.

`O=c1c2cc(F)ccc2sn1-c1ccccc1` gave an AC50 of 1.81 µM.

`Cc1ccc2nc(-c3ccc(NC(=S)NC4CC(C)(C)NC(C)(C)C4)cc3)sc2c1` was tested, and the “activity change, negative = inhibition” value was “inactive”.

In the case of `Cc1ccc(NC(=S)Nc2ccc(F)cc2)cc1C`, the “activity change, negative = inhibition” value is reported as “inactive”.

For `O=C(/C=C/Nc1ccc([N+](=O)[O-])cc1Br)c1cccc2ccccc12`, the “activity change, negative = inhibition” value was “inactive”.

With `CCOC(=O)C1=C(C)N=c2s/c(=C\c3ccc(OCC(=O)O)cc3)c(=O)n2C1c1ccc(OC(C)C)cc1` (stereo not given) the “activity change, negative = inhibition” value was “inactive”.

`CCN(CC)CCOc1ccc2c(c1)C(=NNC(=O)c1ccccn1)c1cc(OCCN(CC)CC)ccc1-2` was tested, and the “activity change, negative = inhibition” value was “inactive”.

For `CC(=O)Nc1nc(-c2ccccc2)c(-c2ccccc2)o1`, the “activity change, negative = inhibition” value was “inactive”.

Work on `CCN(CC)C(=S)SSC(=S)N(CC)CC` yielded an AC50 of 3.26 µM.

For `CC1Cc2cc(S(=O)(=O)N3CCC(C(=O)N(C)Cc4ccco4)CC3)ccc2N1C(=O)C1CCC1` (stereo not given), the “activity change, negative = inhibition” value was “inactive”.

In the case of `O=C(CNC(=O)c1ccncc1)N/N=C/c1cccc([N+](=O)[O-])c1`, the “activity change, negative = inhibition” value is reported as “inactive”.

For `COc1ccccc1NS(=O)(=O)c1ccc(C)c(C(=O)NCC2(N(C)C)CCCCC2)c1`, the “activity change, negative = inhibition” value was “inactive”.

In the case of `CC(C)CCNC(=O)C1CCN(S(=O)(=O)c2ccc3c(c2)CC(C)N3C(=O)C2CCC2)CC1` (stereo not given), the “activity change, negative = inhibition” value is reported as “inactive”.

`O=C(NNc1ccccc1)C(=O)NNS(=O)(=O)c1ccc(CCCl)cc1` was tested, and the “activity change, negative = inhibition” value was “inactive”.

In the case of `Oc1cc2c(cc1O)C1c3ccc(O)c(O)c3OCC1(O)C2` (stereo not given), the AC50 is reported as 6.08 µM.

For `N#C/C(=C\c1ccncc1)c1nc2c(s1)CCCC2`, the “activity change, negative = inhibition” value was “inactive”.

In the case of `CCCCn1c(N)c(N(Cc2ccccc2OC)C(=O)c2sccc2C)c(=O)[nH]c1=O`, the “activity change, negative = inhibition” value is reported as “inactive”.

In the case of `C[C@]12CC[C@@H]3c4ccc(O)c(O)c4CC[C@H]3[C@@H]1CC[C@@H]2O`, the AC50 is reported as 10 µM.

In the case of `CCOc1cc(/C=N/NC(=O)CSc2nncn2C)ccc1OCc1cccc(C)c1`, the “activity change, negative = inhibition” value is reported as “inactive”.

With `O=C(C/C=N/OCc1ccc(Cl)cc1Cl)c1ccccc1` the “activity change, negative = inhibition” value was “inactive”.

`COc1ccc(CNC(=O)C2(c3ccc(Cl)cc3)CC2)cc1` was tested, and the “activity change, negative = inhibition” value was “inactive”.
